According to patent US8278337B2, “Substituted pyridines that are JNK inhibitors” (Merck Sharp & Dohme, priority 2006, dated 2012):
Several values for one entry are separate records, joined by “and”; a condition that tells them apart may be missing. Identical values can stand only once.

Biological target: JNK1 (Homo sapiens, UniProt P45983)
Test: DELFIA kinase assay, JNK1
Type: biochemical
Details: DELFIA assay, 2 nM JNK1, 7 uM ATP, 10 min pre-incubation
Method: Assay DELFIA (Dissociation Enhanced Lanthanide Fluorescence Immuno-Assay) Assay:
Before initiation of kinase reactions, compounds were pre-incubated with the enzyme for 10 minutes. Pre-incubation reactions contained 50 mM HEPES pH 7.3, 10 mM MgCl2, 1 mM DTT, 75 mM NaCl, 1 mM EDTA, 1 mM EGTA, 0.01% CHAPS, 2 nM JNK1, 6 ug/mL biotinylated GST-ATF2, 0.1 mg/ml BSA, 5% DMSO and 0-100 μM compound in a total volume of 40 μL. After a 10 minute room temperature pre-incubation, 10 μL of 35 μM ATP was added to start the reaction (final concentration of ATP=7 uM). Reactions were incubated at room temperature for 30 minutes. A small aliquot (10 uL) was taken and quenched by adding into 190 uL of DELFIA Assay buffer containing 100 mM EDTA. The amount of phosphate transferred to biotinylated GST-ATF2 was measured using the Dissociation Enhanced Lanthanide Fluorescence Immuno-assay (DELFIA) from Perkin Elmer according to manufacturers protocol. Briefly, biotinylated GST-ATF2 was captured on streptavidin coated plates for 1 hour, washed twice, then incubated for 1 hour with a 1:1000 dilution of rabbit-anti-phospho-ATF2 antibody and a 1:3500 dilution of Europium-labeled anti-rabbit secondary antibody. Free antibody was removed with six washes, Europium was dissociated from the antibody, and Europium fluorescence was measured using an excitation wavelength of 340 nm and an emission wavelength of 615 nm. JNK2 and JNK3 kinase reactions were carried out similarly, with the exception that the final concentration of ATP was 4 uM and 2 uM, respectively.

Chain of JNK1 (P45983 whole entry, species assumed): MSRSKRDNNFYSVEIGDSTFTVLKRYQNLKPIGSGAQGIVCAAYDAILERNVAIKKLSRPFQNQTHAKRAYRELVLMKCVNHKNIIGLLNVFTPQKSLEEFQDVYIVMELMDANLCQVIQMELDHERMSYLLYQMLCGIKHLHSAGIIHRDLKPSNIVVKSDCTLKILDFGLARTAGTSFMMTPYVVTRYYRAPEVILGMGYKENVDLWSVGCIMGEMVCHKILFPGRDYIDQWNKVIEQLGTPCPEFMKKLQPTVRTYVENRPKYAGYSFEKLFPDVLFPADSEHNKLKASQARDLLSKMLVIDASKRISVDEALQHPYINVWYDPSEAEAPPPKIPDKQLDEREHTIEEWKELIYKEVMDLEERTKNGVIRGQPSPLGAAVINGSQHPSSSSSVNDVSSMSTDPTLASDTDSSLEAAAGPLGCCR

IC50, 4 nM:
CC(C)NC(=O)c1cccc(C(=O)NCc2cnn(-c3ccc(S(=O)(=O)N(C)C)c(Cl)c3)c2)n1 [Compound 246]

IC50, 8 nM:
Cc1nc2ccc(-n3cc(CNC(=O)c4cccc(C(=O)NC(C)C)n4)cn3)cc2n1C(C)C [Compound 228]

IC50, 7 nM:
CC(C)NC(=O)c1cccc(C(=O)NCc2cnn(-c3ccc(S(=O)(=O)N4CCNCC4)c(Cl)c3)c2)n1 [Compound 248]

Same assay, conditions: DELFIA assay, 2 nM JNK1, 7 uM ATP, 10 min pre-incubation; second table; read-out: JNK 1 IC50

IC50, 8 nM:
Cc1nc2ccc(-n3cc(CNC(=O)c4cccc(C(=O)NC(C)C)n4)cn3)cc2n1C(C)C [Compound 228]

IC50, 4 nM:
CC(C)NC(=O)c1cccc(C(=O)NCc2cnn(-c3ccc(S(=O)(=O)N(C)C)c(Cl)c3)c2)n1 [Compound 246]

IC50, 7 nM:
CC(C)NC(=O)c1cccc(C(=O)NCc2cnn(-c3ccc(S(=O)(=O)N4CCNCC4)c(Cl)c3)c2)n1 [Compound 248]

Same assay, conditions: DELFIA, biotinylated GST-ATF2 substrate, 10 minute pre-incubation, final ATP 7 uM

IC50, 4 to 97 nM and 4 to 19 nM:
Cc1nc2ccc(-n3cc(CNC(=O)c4cccc(C(=O)NC(C)C)n4)cn3)cc2n1C(C)C [Compound 228]

IC50, 4 to 97 nM:
CC(C)NC(=O)c1cccc(C(=O)NCc2cnn(-c3ccc4ncn(C)c4c3)c2)n1 [Compound 147], CC(C)NC(=O)c1cccc(C(=O)NCc2cnn(-c3cccc(S(C)(=O)=O)c3)c2)n1 [Compound 136], CCOC(=O)Nc1nc2ccc(CNC(=O)c3cccc(C(=O)NC(C)C)n3)cc2s1 [Compound 205], COc1ccc(-c2cc(CNC(=O)c3cccc(C(=O)NC(C)C)n3)no2)cc1 [Compound 86], CC(C)NC(=O)c1cccc(C(=O)NCc2cnn(-c3ccc([S+](C)[O-])cc3)c2)n1 (centres unmarked) [Compound 154], CS(=O)(=O)c1ccc(-n2cc(CNC(=O)c3cccc(-n4cc(-c5ccccn5)cn4)n3)cn2)cc1 [Compound 297], CC(C)NC(=O)c1cccc(C(=O)NCc2ccc3nc(NC(C)C)sc3c2)n1 [Compound 201], CC(C)NC(=O)c1cccc(C(=O)NCc2cnn(-c3ccc(S(=O)(=O)N4CCN(C(=O)OC(C)(C)C)CC4)c(Cl)c3)c2)n1 [Compound 247], Cc1cccc(-n2cc(CNC(=O)c3ccc(F)c(C(=O)NC(C)C)n3)cn2)c1 [Compound 428]

IC50, 1030 to 10000 nM and > 1000 nM:
CS(=O)(=O)c1ccc(CNC(=O)c2cccc(-n3cncn3)n2)cc1 [Compound 326], O=C(NCc1cnn(-c2cccc(C(F)(F)F)c2)c1)c1cccc(-c2cc3ccccc3[nH]2)n1 [Compound 347], O=C(NCc1cnn(-c2cccc(C(F)(F)F)c2)c1)c1cccc(N2CCOCC2)n1 [Compound 345]

IC50, 102 to 959 nM:
CC(C)NC(=O)c1cccc(C(=O)NCc2cccc(Oc3ccccn3)c2)n1 [Compound 126], CC(C)NC(=O)c1cccc(C(=O)NCc2ccc(-c3ccc(C#N)cc3)cc2)n1 [Compound 195], CC(C)NC(=O)c1cccc(C(=O)NCc2cnn(-c3ccccc3Cl)c2)n1 [Compound 157], O=C(NCc1cccnc1)c1cccc(-n2cc(I)cn2)n1 [Compound 289], CC(C)NC(=O)c1cccc(C(=O)NCc2cncc(Br)c2)n1 [Compound 254], CC(C)NC(=O)c1cccc(C(=O)NCc2ccc(Cl)cc2)n1 [Compound 97], CC(C)NC(=O)c1cccc(C(=O)NCc2cnn(C(C)C)c2)n1 [Compound 117], CS(=O)(=O)c1ccc(CNC(=O)c2cccc(C(=O)NC3CCN(C(N)=O)CC3)n2)cc1 [Compound 55], Cc1nc2ccc(CNC(=O)c3cccc(C(=O)NC(C)C)n3)cc2n1C [Compound 128], Cc1cccc(-n2cc(CNC(=O)c3nc(C(=O)NC(C)C)ccc3F)cn2)c1 [Compound 429], CC(C)NC(=O)c1cccc(C(=O)NCc2ccc(-c3cccc(C(F)(F)F)c3)nc2)n1 [Compound 183], CC(C)NC(=O)c1cccc(C(=O)NCc2cnn(-c3ncccn3)c2)n1 [Compound 160], Cc1ccc(-c2ccc(CNC(=O)c3cccc(C(=O)NC(C)C)n3)cn2)cc1 [Compound 177], Nc1nc2ccc(CNC(=O)c3cccc(C(=O)N[C@H](CO)c4ccccc4)n3)cc2s1 [Compound 51], Cc1nc2cc(CNC(=O)c3cccc(C(=O)NC(C)C)n3)ccc2[nH]1 [Compound 108], CC(CO)NC(=O)c1cccc(C(=O)NCc2ccc3nc(N)sc3c2)n1 (centres unmarked) [Compound 18], Nc1nc2ccc(CNC(=O)c3cccc(C(=O)N[C@H]4CC[C@H](O)CC4)n3)cc2s1 [Compound 68], CC(C)NC(=O)c1cccc(C(=O)NCc2ccc(-c3ccc(S(C)(=O)=O)cc3)cc2)n1 [Compound 196], CC(C)NC(=O)c1cccc(C(=O)NCc2nc3ccccc3[nH]2)n1 [Compound 106], Cc1ccc(CNC(=O)c2cccc(C(=O)NC(C)C)n2)cc1F [Compound 110], O=C(NCc1cnn(-c2ccccc2)c1)c1cccc(-n2cc(I)cn2)n1 [Compound 291], CC(C)[C@H](CO)NC(=O)c1cccc(C(=O)NCc2ccc3nc(N)sc3c2)n1 [Compound 50], CC(C)NC(=O)c1cccc(C(=O)NCc2cnn(-c3cc(F)cc(C#N)c3)c2)n1 [Compound 162], CC(C)NC(=O)c1cccc(C(=O)NCc2cnn(-c3cnc4nccn4c3)c2)n1 [Compound 213], CC(C)NC(=O)c1cccc(C(=O)NCc2ccc(-c3cccc(S(C)(=O)=O)c3)nc2)n1 [Compound 180], CC(C)NC(=O)c1cccc(C(=O)NCc2cnn(-c3ccccn3)c2)n1 [Compound 156], Nc1nc2ccc(CNC(=O)c3cccc(-n4cccn4)n3)cc2s1 [Compound 264], CC(C)C[C@@H](CO)NC(=O)c1cccc(C(=O)NCc2ccc3nc(N)sc3c2)n1 [Compound 21]

IC50, > 1000 nM and 1030 to 10000 nM:
CC(C)NC(=O)c1cccc(C(=O)NCC2CCN(c3cccc(C#N)c3)CC2)n1 [Compound 419], CCOC(=O)Nc1cccc(C(=O)NC2CCN(C(=O)OCC)CC2)n1 [Compound 400], CCOC(=O)N1CCC(NC(=O)c2cccc(NC(=O)Cc3ccc4c(c3)OCO4)n2)CC1 [Compound 401], CS(=O)(=O)c1ccc(CNC(=O)c2cccc(-n3cc(-c4ccc(F)cc4)cn3)n2)cc1 [Compound 321], CC(C)NC(=O)c1cccc(C(=O)NCc2nc3ccccc3n2C)n1 [Compound 107], CC(C)NC(=O)c1cccc(C(=O)NNc2ccc(S(C)(=O)=O)cc2)n1 [Compound 122], CCNC(=O)c1cc(Cl)cc(C(=O)NCc2ccc(S(C)(=O)=O)cc2)n1 [Compound 408], CC(C)C(=O)N(C)c1cccc(C(=O)NCc2cnn(-c3cccc(C(F)(F)F)c3)c2)n1 [Compound 365], CC(C)C(=O)N(C(=O)C(C)C)c1cccc(C(=O)NCc2cnn(-c3cccc(C(F)(F)F)c3)c2)n1 [Compound 364]

IC50, > 1000 nM:
COC(=O)c1ccc(C2CCN(C(=O)c3cccc(C(=O)NCc4ccc5nc(N)sc5c4)n3)CC2O)cc1 (centres unmarked) [Compound 33], CCOC(=O)N1CCC(NC(=O)c2cccc(N(C)CCc3ccncc3)n2)CC1 [Compound 394], CCOC(=O)N1CCC(NC(=O)c2cccc(C(=O)NCc3ccc4c(c3)OCO4)c2)CC1 [Compound 372], CS(=O)(=O)c1ccc(CNC(=O)c2cccc(C(=O)NC3CCN(S(=O)(=O)Cc4ccccc4)CC3)n2)cc1 [Compound 61], Nc1nc2ccc(CNC(=O)c3cccc(C(=O)N4CCC(c5cccc(O)c5)C(O)C4)n3)cc2s1 (centres unmarked) [Compound 31], CCNC(=O)N1CCC(NC(=O)c2cccc(C(=O)NCc3ccc(S(C)(=O)=O)cc3)n2)CC1 [Compound 56], CCOC(=O)N1CCC(NC(=O)c2cccc(C(=O)NCCO)n2)CC1 [Compound 40], CCOC(=O)N1CCC(NC(=O)c2cccc(Nc3cccnc3)n2)CC1 [Compound 388], CS(=O)(=O)c1ccc(CNC(=O)c2cccc(C(=O)NC3CCN(S(C)(=O)=O)CC3)n2)cc1 [Compound 58], CCOC(=O)N1CCC(NC(=O)c2cccc(NCc3ccc4c(c3)OCO4)n2)CC1 [Compound 392]

IC50, 4 to 19 nM and 4 nM and 4 to 97 nM:
CC(C)NC(=O)c1cccc(C(=O)NCc2cnn(-c3ccc(S(=O)(=O)N(C)C)c(Cl)c3)c2)n1 [Compound 246]

IC50, 4 to 19 nM and 4 to 97 nM:
CC(C)NC(=O)c1cccc(C(=O)NCc2cnn(-c3ccc(S(=O)(=O)N4CCNCC4)c(Cl)c3)c2)n1 [Compound 248]
